Test results: US20160278367A1, “Pesticidal Composition” (priority 2013, published 2016)

System: hematophagous arthropods
Test: terpenes fatal to hematophagous arthropods (test not described)
Conditions: not given

| SMILES | fatal to hematophagous arthropods |
| --- | --- |
| CC(=O)/C=C/C1=C(C)CCCC1(C)C [beta-ionone] | fatal |
| C=C(C)C1CC=C(C)C(=O)C1 (stereo not drawn) [carvone] | fatal |
| C=CCc1ccc(O)c(OC)c1 [eugenol] | fatal |
| CC(C)=CCC/C(C)=C/CO [geraniol] | fatal |
| C=CC(C)(O)CCC=C(C)C (stereo not drawn) [linalool] | fatal |
| C=CC(=C)CCC=C(C)C [myrcene] | fatal |
| C=C(C)[C@H]1CC=C(C)CC1 [redistilled limonene, limonene] | fatal |

System: not listed separately
Test: solution and stable suspension of citral
Format: physicochemical
Conditions: solution
Source text: (§1) In one embodiment the terpene component includes one or more terpenes which contain oxygen. Citral, for example citral 95, is an oxygenated […], C10H16O CAS No. 5392-40-5 (3,7-dimethyl-2,6-octadien-1-a1). A stable suspension of citral can be formed up to about 2500 ppm. Citral can be made into a solution at up to about 500 ppm. A stable suspension of hollow glucan particles incorporating citral of 25 ppt citral can be made.
as §1, with “(3,7-dimethyl-2,6-octadien-1-a1) .” for “(3,7-dimethyl-2,6-octadien-1-a1).”

| SMILES | citral can be made into a solution at up to |
| --- | --- |
| CC(C)=CCCC(C)=CC=O (mixture of isomers) [Citral, 3,7-dimethyl-2,6-octadien-1-a1] | about 500 ppm |

Same assay, conditions: suspension

| SMILES | stable suspension of citral can be formed up to |
| --- | --- |
| CC(C)=CCCC(C)=CC=O (mixture of isomers) [Citral, 3,7-dimethyl-2,6-octadien-1-a1] | about 2500 ppm |
